Experimental data taken from the supplement of paper PMC11821682.

Key:
[1] = system: Danio rerio embryo; assay: BMC10 any morphological effect or mortality at 120 hpf; higher = less toxic
[2] = system: HL-60; assay: Cell Health Index (toxicity pseudo-probability over dose series) (index 0-1); higher = more cytotoxic / cell stress;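 further: HL-60 cells exposed 4 h at 37 °C to ten threefold dilutions spanning 5 nM to 100 µM, multiparametric flow cytometry features scored by machine-learning classification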

Compound | BMC10 any morphological effect or mortality [1] [µM] | Cell Health Index [2]
COC(=O)C1=CO[C@@H](O[C@@H]2O[C@H](CO)[C@@H](O)[C@H](O)[C@H]2O)[C@@H]2C(CO)=CC[C@H]12 [Geniposide] | > 100 | 0.251
C=C[C@@H]1C2=CCOC(=O)C2=CO[C@H]1O[C@@H]1O[C@H](CO)[C@@H](O)[C@H](O)[C@H]1O [Gentiopicrin] | > 100 | 0.225
O=C1O[C@@H]2[C@H]3OC(=O)c4cc(O)c(O)c(O)c4-c4c(cc(O)c(O)c4O)C(=O)OC[C@@H]2OC(OC(=O)c2cc(O)c(O)c(O)c2)[C@H]3OC(=O)c2cc(O)c(O)c3c2C2C1=CC(=O)C(O)(O3)C2(O)O (stereo partly drawn) [Geraniin] | > 100 | 0.824
CC(C)=CCC[C@](C)(O[C@@H]1O[C@H](CO[C@@H]2O[C@H](CO)[C@@H](O)[C@H](O)[C@H]2O)[C@@H](O)[C@H](O)[C@H]1O)[C@H]1CC[C@]2(C)[C@@H]1[C@H](O)C[C@@H]1[C@@]3(C)CC[C@H](O[C@@H]4O[C@H](CO)[C@@H](O)[C@H](O)[C@H]4O[C@@H]4O[C@H](CO)[C@@H](O)[C@H](O)[C@H]4O)C(C)(C)[C@@H]3CC[C@]12C [Ginsenoside Rb1] | > 100 | 0.145
O[C@H]1[C@@]2([H])[C@](CC[C@]2([H])[C@@](CC/C=C(C)/C)(C)O[C@@H]3O[C@H](CO[C@H]4[C@H](O)[C@@H](O)[C@@H](O)CO4)[C@@H](O)[C@H](O)[C@H]3O)(C)[C@]5(C)CC[C@]6([H])[C@@](CC[C@H](O[C@]7([H])O[C@H](CO)[C@@H](O)[C@H](O)[C@H]7O[C@@]8([H])[C@H](O)[C@@H](O)[C@H](O)[C@@H](CO)O8)C6(C)C)(C)[C@@]5([H])C1 [Ginsenoside Rb2] | > 100 | 0.173
CC1(C)CC[C@]2(C(=O)O[C@@H]3O[C@H](CO)[C@@H](O)[C@H](O)[C@H]3O)CC[C@]3(C)C(=CC[C@@H]4[C@@]5(C)CC[C@H](O[C@@H]6O[C@H](C(=O)O)[C@@H](O)[C@H](O)[C@H]6O[C@@H]6O[C@H](CO)[C@@H](O)[C@H](O)[C@H]6O)C(C)(C)[C@@H]5CC[C@]43C)[C@@H]2C1 [Ginsenoside Ro] | > 100 | 0.229
CC(C)(C)[C@@H]1NC(=O)O[C@@H]2CCC[C@H]2OC/C=C/C(F)(F)c2nc3ccccc3nc2O[C@@H]2C[C@@H](C(=O)N[C@]3(C(=O)NS(=O)(=O)C4(C)CC4)C[C@H]3C(F)F)N(C2)C1=O [Glecaprevir] | > 100 | 0.369
COc1cc2c(=O)c(-c3ccc(O)cc3)coc2cc1O[C@@H]1O[C@H](CO)[C@@H](O)[C@H](O)[C@H]1O [Glycitin] | > 100 | 0.158
CC1(C)[C@@H](O[C@H]2O[C@H](C(=O)O)[C@@H](O)[C@H](O)[C@H]2O[C@@H]2O[C@H](C(=O)O)[C@@H](O)[C@H](O)[C@H]2O)CC[C@]2(C)[C@H]3C(=O)C=C4[C@@H]5C[C@@](C)(C(=O)O)CC[C@]5(C)CC[C@@]4(C)[C@]3(C)CC[C@@H]12.N [Glycyrrhizin] | > 100 | 0.295
C=C[C@H]1C[C@@]1(NC(=O)[C@@H]1C[C@@H]2CN1C(=O)[C@H](C(C)(C)C)NC(=O)O[C@@H]1C[C@H]1CCCCCc1nc3ccc(OC)cc3nc1O2)C(=O)NS(=O)(=O)C1CC1 [Grazoprevir] | > 100 | 0.532
COc1ccc(C2CC(=O)c3c(O)cc(O)cc3O2)cc1O (stereo not drawn) [Hesperetin] | > 100 | 0.258
COc1ccc([C@@H]2CC(=O)c3c(O)cc(O[C@@H]4O[C@H](CO[C@@H]5O[C@@H](C)[C@H](O)[C@@H](O)[C@H]5O)[C@@H](O)[C@H](O)[C@H]4O)cc3O2)cc1O [Hesperidin] | > 100 | 0.204
CCN(CCO)CCCC(C)Nc1ccnc2cc(Cl)ccc12.O=S(=O)(O)O (stereo not drawn) [Hydroxychloroquine] | > 100 | 0.211
NC(=O)NO [Hydroxyurea] | > 100 | 0.161
O=c1[nH]c(=O)n([C@H]2C[C@H](O)[C@@H](CO)O2)cc1I [Idoxuridine] | > 100 | 0.205
CC(C)Cn1cnc2c(N)nc3ccccc3c21 [Imiquimod] | > 100 | 0.269
CC(C)(C)NC(=O)[C@@H]1CN(Cc2cccnc2)CCN1C[C@@H](O)C[C@@H](Cc1ccccc1)C(=O)N[C@H]1c2ccccc2C[C@H]1O.O=S(=O)(O)O [Indinavir] | > 100 | 0.233
CC(=O)Nc1ccc(C(=O)O)cc1.CC(=O)Nc1ccc(C(=O)O)cc1.CC(=O)Nc1ccc(C(=O)O)cc1.CC(O)CN(C)C.CC(O)CN(C)C.CC(O)CN(C)C.O=c1nc[nH]c2c1ncn2[C@@H]1O[C@H](CO)[C@@H](O)[C@H]1O [Inosine] | > 100 | 0.242
CC1=CC(=O)/C(=C/c2ccc(O)c(O)c2)O1 [Inotilone] | > 100 | 0.76
CC1(C)[C@@H]2CC[C@@]1(C)[C@H](O)C2 [Isoborneol] | > 100 | 0.173
COc1ccc(/C=C/C(=O)O)cc1O [Isoferulic acid] | > 100 | 0.171
O=c1c(O[C@@H]2O[C@H](CO)[C@@H](O)[C@H](O)[C@H]2O)c(-c2ccc(O)c(O)c2)oc2cc(O)cc(O)c12 [Isoquercetin] | > 100 | 0.31

Compound | BMC10 any morphological effect or mortality [1] [µM] | Cell Health Index [2]
N[C@H]1CONC1=O [L-Cycloserine] | > 100 | 0.19
Nc1ccn([C@@H]2CS[C@H](CO)O2)c(=O)n1 [Lamivudine] | > 100 | 0.2
COC(=O)N[C@H](C(=O)N1CC2(CC2)C[C@H]1c1ncc(-c2ccc3c(c2)C(F)(F)c2cc(-c4ccc5nc([C@@H]6[C@H]7CC[C@H](C7)N6C(=O)[C@@H](NC(=O)OC)C(C)C)[nH]c5c4)ccc2-3)[nH]1)C(C)C [Ledipasvir] | > 100 | 0.231
COc1cccc(N2CCN(C3=Nc4c(F)cccc4[C@H](CC(=O)O)N3c3cc(C(F)(F)F)ccc3OC)CC2)c1 [Letermovir] | > 100 | 0.303
CC(=O)N[C@@H](CC(C)C)C(=O)N[C@@H](CC(C)C)C(=O)N[C@H](C=O)CCCNC(=N)N.CC(=O)N[C@@H](CC(C)C)C(=O)N[C@@H](CC(C)C)C(=O)N[C@H](C=O)CCCNC(=N)N.O=S(=O)(O)O [Leupeptin] | > 100 | 0.184
CC1(C)O[C@H]2CC(=O)OC[C@]23[C@H]2CC[C@@]4(C)[C@H](c5ccoc5)OC(=O)[C@H]5O[C@]54[C@]2(C)C(=O)C[C@@H]13 [Limonin] | > 100 | 0.145
CC(C)(C)C#Cc1cc(N(C(=O)[C@H]2CC[C@H](C)CC2)[C@H]2CC[C@@H](O)CC2)c(C(=O)O)s1 [Lomibuvir] | > 100 | 0.414
Cc1cccc(C)c1OCC(=O)N[C@@H](Cc1ccccc1)[C@@H](O)C[C@H](Cc1ccccc1)NC(=O)[C@H](C(C)C)N1CCCNC1=O [Lopinavir] | > 100 | 0.752
CCCCc1nc(Cl)c(C=O)n1Cc1ccc(-c2ccccc2-c2nnn[nH]2)cc1 [Losartan carboxaldehyde] | > 100 | 0.293
CCCCc1nc(Cl)c(C(=O)O)n1Cc1ccc(-c2ccccc2-c2nnn[nH]2)cc1 [Losartan carboxylic acid] | > 100 | 0.221
CCCCc1nc(Cl)c(CO)n1Cc1ccc(-c2ccccc2-c2nnn[n-]2)cc1.[K+] [Losartan] | > 100 | 0.209
CCCCN(CCCC)CC(O)c1cc(Cl)cc2c1-c1ccc(Cl)cc1/C2=C/c1ccc(Cl)cc1 (stereo not drawn) [Lumefantrine] | > 100 | 0.218
O=c1cc(-c2ccc(O)c(O)c2)oc2cc(O)cc(O)c12 [Luteolin] | > 100 | 0.54
O=c1cc(-c2ccc(O)c(O)c2)oc2cc(O[C@@H]3O[C@H](CO)[C@@H](O)[C@H](O)[C@H]3O)cc(O)c12 [Luteoloside] | > 100 | 0.345
O=C(O)Cn1nnc(-c2cc(N3CCC(Oc4cc(F)ccc4Br)CC3)no2)n1 [MK-8245] | > 100 | 0.226
O=c1c2cc(O)c(O)cc2oc2cc(O)c([C@@H]3O[C@H](CO)[C@@H](O)[C@H](O)[C@H]3O)c(O)c12 [Mangiferin] | > 100 | 0.26
Cc1nnc(C(C)C)n1[C@@H]1C[C@H]2CC[C@@H](C1)N2CC[C@H](NC(=O)C1CCC(F)(F)CC1)c1ccccc1 [Maraviroc] | > 100 | 0.155
COc1cc(NC(=O)Nc2cccc(CNC(=O)O[C@H]3CCOC3)c2)ccc1-c1cnco1 [Merimepodib] | > 100 | 0.67
COC(=O)c1cc(O)c(O)c(O)c1 [Methyl gallate] | > 100 | 0.351
CCCCN1C[C@H](O)[C@@H](O)[C@H](O)[C@H]1CO.Cl [Miglustat] | > 100 | 0.184
NC(=O)c1ncn([C@@H]2O[C@H](CO)[C@@H](O)[C@H]2O)c1O [Mizoribine] | > 100 | 0.202
Cl.N=C(N)NC(=N)N1CCOCC1 [Moroxydine] | > 100 | 0.19
